In ChEMBL document CHEMBL4828781, “Novel Heteroaromatic Carboxamide Derivatives as Plasma Kallikrein Inhibitors for Treating Diabetic Complications, Ocular Diseases and Edema-Associated Diseases” (ACS Med Chem Lett, 2021):

Target: Plasma kallikrein (Homo sapiens, UniProt P03952)
Test: Inhibition of human plasma kallikrein using […] as fluorogenic substrate measured every 2 mins for 12 mins by microplate reader analysis

Plasma kallikrein, sequence (P03952 20-390 limits assumed): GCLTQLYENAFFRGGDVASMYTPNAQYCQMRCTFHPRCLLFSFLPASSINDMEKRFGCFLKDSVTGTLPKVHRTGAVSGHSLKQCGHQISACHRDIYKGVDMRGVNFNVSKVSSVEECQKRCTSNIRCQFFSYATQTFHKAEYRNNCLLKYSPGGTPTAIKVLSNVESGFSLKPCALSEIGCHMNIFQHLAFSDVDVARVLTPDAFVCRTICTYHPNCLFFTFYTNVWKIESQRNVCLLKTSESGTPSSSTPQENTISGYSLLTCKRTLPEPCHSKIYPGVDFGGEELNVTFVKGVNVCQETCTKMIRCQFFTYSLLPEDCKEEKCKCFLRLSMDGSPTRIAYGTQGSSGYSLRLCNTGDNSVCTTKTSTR
Plasma kallikrein, sequence (P03952 391-638 limits assumed): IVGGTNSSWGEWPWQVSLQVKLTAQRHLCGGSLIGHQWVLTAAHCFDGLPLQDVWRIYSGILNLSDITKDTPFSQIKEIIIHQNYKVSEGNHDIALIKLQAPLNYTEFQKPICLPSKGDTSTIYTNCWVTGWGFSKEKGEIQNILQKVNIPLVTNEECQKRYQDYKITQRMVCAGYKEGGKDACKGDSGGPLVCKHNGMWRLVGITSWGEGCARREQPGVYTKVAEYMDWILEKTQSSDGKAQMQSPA

Work on `Cc1c(Cn2cnc(C(=O)N[C@@H]3CCc4c3ncn4C)c2)ccc(N2CC3CC3C2)c1C#N` (stereo partly specified) yielded an IC50 of 0.3 nM.
